Results as given in the supplement of paper PMC13380429.

Key:
A549-ACE2 [1] = experiment: drug-induced phospholipidosis relative to tamoxifen; higher = more phospholipidosis
U2OS [2] = experiment: relative viability EC50 (midpoint between 100% and the lowest measured viability); higher = less toxic; details: 72 h
Vero E6 [3] = experiment: as above; details: 72 h
HepG2 [4] = experiment: as above; details: 72 h
U2OS [5] = experiment: drug sensitivity score (DSS) for viability; higher = more toxic; extreme values may be limits of the assay; details: 72 h
Vero E6 [6] = experiment: as above; details: 72 h
Calu-3 [7] = experiment: as above; details: 72 h
HepG2 [8] = experiment: as above; details: 72 h
Caco-2 [9] = experiment: as above; details: 72 h
[10] = test system: A549-ACE2 infected with SARS-CoV-2; experiment: morphology score (similarity to uninfected cells); higher = more like uninfected cells; details: 24 h
A549-ACE2 [11] = experiment: phospholipidosis EC50; higher = less potent phospholipidosis inducer
[12] = test system: A549-ACE2 infected with SARS-CoV-2; experiment: cell count relative to DMSO; higher = less toxic; details: 24 h
[13] = test system: A549-ACE2 infected with SARS-CoV-2; experiment: SARS-CoV-2 infection rate relative to DMSO; higher = more infection; details: 24 h
U2OS [14] = experiment: cell viability relative to DMSO; higher = less toxic; details: 72 h
Vero E6 [15] = experiment: as above; details: 72 h
Calu-3 [16] = experiment: as above; details: 72 h
HepG2 [17] = experiment: as above; details: 72 h
Caco-2 [18] = experiment: as above; details: 72 h

CCOc1cn(-c2ccc(F)cc2C)nc1C(=O)Nc1ccc(Oc2ccnc3cc(OC)c(OC)cc23)c(F)c1 [LDC1267]
drug-induced phospholipidosis [%], A549-ACE2 [1]
Details	0.3 µM	0.833333 µM	3.33333 µM	6.66667 µM	10 µM	30 µM
24 h	2.46	2.17	18.8	41.1	67	35
48 h	6.67	3.21	28.6	39.5	–	48.4
72 h	7.89	6.46	31.2	48.2	–	61.4

Details	drug sensitivity score	relative viability EC50 [µM]
Caco-2 [9]	2.4	–
Calu-3 [7]	2	–
HepG2 [4]	–	> 10
HepG2 [8]	2.2	–
U2OS [2]	–	> 10
U2OS [5]	0.3	–
Vero E6 [3]	–	> 10
Vero E6 [6]	0	–

Details	SARS-CoV-2 infection rate [%]	cell count [%]	cell viability [%]	morphology score	phospholipidosis EC50 [µM]
A549-ACE2 [11], 24 h	–	–	–	–	3.79
A549-ACE2 [11], 72 h	–	–	–	–	3.79
Caco-2 [18], 1 nM	–	–	95.3	–	–
Caco-2 [18], 10 nM	–	–	96.1	–	–
Caco-2 [18], 100 nM	–	–	94.7	–	–
Caco-2 [18], 1000 nM	–	–	91.9	–	–
Caco-2 [18], 10000 nM	–	–	68.7	–	–
Calu-3 [16], 1 nM	–	–	100	–	–
Calu-3 [16], 10 nM	–	–	99	–	–
Calu-3 [16], 100 nM	–	–	95.3	–	–
Calu-3 [16], 1000 nM	–	–	87.9	–	–
Calu-3 [16], 10000 nM	–	–	73	–	–
HepG2 [17], 1 nM	–	–	106	–	–
HepG2 [17], 10 nM	–	–	94.7	–	–
HepG2 [17], 100 nM	–	–	99.9	–	–
HepG2 [17], 1000 nM	–	–	88.5	–	–
HepG2 [17], 10000 nM	–	–	76.2	–	–
U2OS [14], 1 nM	–	–	97.5	–	–
U2OS [14], 10 nM	–	–	101	–	–
U2OS [14], 100 nM	–	–	98.4	–	–
U2OS [14], 1000 nM	–	–	102	–	–
U2OS [14], 10000 nM	–	–	83.1	–	–
Vero E6 [15], 1 nM	–	–	105	–	–
Vero E6 [15], 10 nM	–	–	103	–	–
Vero E6 [15], 100 nM	–	–	103	–	–
Vero E6 [15], 1000 nM	–	–	96.9	–	–
Vero E6 [15], 10000 nM	–	–	100	–	–
[10], 0.3 µM	–	–	–	0.33	–
[10], 3 µM	–	–	–	0.25	–
[10], 10 µM	–	–	–	0.23	–
[10], 30 µM	–	–	–	0.15	–
[12], 0.3 µM	–	102	–	–	–
[12], 3 µM	–	100	–	–	–
[12], 10 µM	–	91	–	–	–
[12], 30 µM	–	84	–	–	–
[13], 0.3 µM	91	–	–	–	–
[13], 3 µM	107	–	–	–	–
[13], 10 µM	90	–	–	–	–
[13], 30 µM	93	–	–	–	–

O=c1cc(N2CCOCC2)oc2c(-c3cccc4c3sc3ccccc34)cccc12 [NU-7441]
drug-induced phospholipidosis [%], A549-ACE2 [1]
Details	0.3 µM	0.833333 µM	3.33333 µM	6.66667 µM	10 µM	30 µM
24 h	-4.01	-8.02	17.6	23.6	28.1	26.9
48 h	-3.93	-5.23	26.4	–	–	–
72 h	-2.08	-7.5	–	–	–	–

Details	drug sensitivity score	relative viability EC50 [µM]
Caco-2 [9]	5.6	–
Calu-3 [7]	1.4	–
HepG2 [4]	–	1.87
HepG2 [8]	5.6	–
Vero E6 [3]	–	1.87
Vero E6 [6]	7.2	–

Details	SARS-CoV-2 infection rate, [13] [%]	cell count, [12] [%]	cell viability, Caco-2 [18] [%]	cell viability, Calu-3 [16] [%]	cell viability, HepG2 [17] [%]	cell viability, Vero E6 [15] [%]	morphology score, [10]
1 nM	–	–	109	101	108	104	–
10 nM	–	–	89.2	110	108	102	–
0.1 µM	101	96	–	–	–	–	-0.14
100 nM	–	–	100	98.7	116	102	–
0.3 µM	101	94	–	–	–	–	-0.23
1 µM	74	105	–	–	–	–	0.22
1000 nM	–	–	71.2	111	88.4	85.4	–
3 µM	38	98	–	–	–	–	0.53
10000 nM	–	–	56.9	61	32.7	14.4	–

C=C1C(=O)[C@]23[C@H](O)[C@H]1CC[C@H]2[C@@]12CO[C@]3(O)[C@@H](O)[C@@H]1C(C)(C)CC[C@@H]2O [Oridonin (Isodonol)]
drug-induced phospholipidosis [%], A549-ACE2 [1]
Details	0.3 µM	0.833333 µM	3.33333 µM	6.66667 µM	10 µM	30 µM
24 h	5.1	-1.43	0.65	11	16.8	43.1
48 h	5.34	-3.46	-0.285	6.67	13	–
72 h	4.41	-5.79	-4.81	-1.61	4.49	–

Details	drug sensitivity score	relative viability EC50 [µM]
Caco-2 [9]	2.7	–
HepG2 [4]	–	2.63
HepG2 [8]	3.7	–
U2OS [2]	–	2.66
U2OS [5]	5.7	–
Vero E6 [3]	–	> 10
Vero E6 [6]	1.2	–

Details	SARS-CoV-2 infection rate, [13] [%]	cell count, [12] [%]	cell viability, Caco-2 [18] [%]	cell viability, HepG2 [17] [%]	cell viability, U2OS [14] [%]	cell viability, Vero E6 [15] [%]	morphology score, [10]
1 nM	–	–	97.7	97.4	102	99.9	–
10 nM	–	–	107	103	95.1	98.7	–
0.1 µM	100	94	–	–	–	–	-0.14
100 nM	–	–	103	91.8	98.3	97.9	–
0.3 µM	99	101	–	–	–	–	-0.02
1 µM	104	99	–	–	–	–	-0.18
1000 nM	–	–	93.3	96.2	94.4	95.4	–
3 µM	101	98	–	–	–	–	-0.01
10000 nM	–	–	65.4	42.8	11.8	79.7	–
